This note sets out measurements from ChEMBL document CHEMBL5108088, “N-Methylamide-structured SB366791 derivatives with high TRPV1 antagonistic activity: toward PET radiotracers to visualize TRPV1” (RSC Med Chem, 2022).

Data set [1] deals with Transient receptor potential cation channel subfamily V member 1 (Rattus norvegicus, UniProt O35433). Kind of data set: Antagonist activity at rat TRPV1 expressed in human HEK293 cells assessed as inhibition of capsaicin-induced influx by measuring intracellular calcium accumulation by fura-2 dye based fluorimetric assay. The format is cell-based. (In general: A change in cytosolic calcium serves as a functional read-out for many receptors and channels.)
Transient receptor potential cation channel subfamily V member 1, sequence (O35433 whole entry): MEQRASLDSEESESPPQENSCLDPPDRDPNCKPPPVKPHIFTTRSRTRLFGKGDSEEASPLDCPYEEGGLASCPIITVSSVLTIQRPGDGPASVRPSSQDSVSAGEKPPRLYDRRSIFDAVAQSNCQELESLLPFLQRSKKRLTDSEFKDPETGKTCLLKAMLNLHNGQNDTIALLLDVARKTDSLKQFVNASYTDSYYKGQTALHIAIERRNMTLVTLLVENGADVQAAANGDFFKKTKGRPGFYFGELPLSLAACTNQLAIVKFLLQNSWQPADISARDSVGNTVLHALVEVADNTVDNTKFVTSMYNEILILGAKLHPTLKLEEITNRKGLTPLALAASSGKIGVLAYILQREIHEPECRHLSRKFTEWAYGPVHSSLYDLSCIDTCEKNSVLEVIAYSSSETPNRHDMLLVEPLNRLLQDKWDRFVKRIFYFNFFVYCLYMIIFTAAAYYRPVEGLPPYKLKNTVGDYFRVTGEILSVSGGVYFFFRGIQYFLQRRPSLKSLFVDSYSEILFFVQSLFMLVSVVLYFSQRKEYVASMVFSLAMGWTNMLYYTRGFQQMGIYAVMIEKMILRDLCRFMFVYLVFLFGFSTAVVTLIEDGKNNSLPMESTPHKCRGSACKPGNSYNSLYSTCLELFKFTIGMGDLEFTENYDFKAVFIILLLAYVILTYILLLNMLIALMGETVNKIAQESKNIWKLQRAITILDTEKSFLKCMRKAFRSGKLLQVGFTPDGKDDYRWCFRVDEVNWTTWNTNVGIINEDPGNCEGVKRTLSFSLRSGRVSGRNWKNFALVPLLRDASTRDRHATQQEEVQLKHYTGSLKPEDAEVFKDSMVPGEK

Data set [2] in a line: Drug uptake in iv dosed Sprague-Dawley rat brain striatum assessed as high radioactivity in striatum and measured upto 60 mins by PET imaging analysis. The format is ADME, organism-based. Particulars: in vivo, 1 h; call rule not given here.
Data set [3] is described as follows: Drug uptake in iv dosed Sprague-Dawley rat brain hypothalamus assessed as high radioactivity in hypothalamus and measured upto 60 mins by PET imaging analysis. Conditions: in vivo, 1 h. It counts as ADME, organism-based.
Data set [4] can be described thus: Drug uptake in iv dosed Sprague-Dawley rat brain thalamus assessed as high radioactivity and measured upto 60 mins by PET imaging analysis. It counts as ADME, organism-based. Conditions: in vivo, 1 h.
Data set [5] in a line: Drug uptake in iv dosed Sprague-Dawley rat brain assessed as high radioactivity in brain cortical area and measured upto 60 mins by PET imaging analysis. The format is ADME, organism-based. Conditions: in vivo, 1 h.
Data set [6] in a line: Drug uptake in iv dosed Sprague-Dawley rat brain medulla oblongata assessed as high radioactivity in medulla oblongata and measured upto 60 mins by PET imaging analysis. The format is ADME, organism-based. Conditions: in vivo, 1 h.
The nature of data set [7]: Drug uptake in iv dosed Sprague-Dawley rat brain cerebellum assessed as high radioactivity in brain cerebellum and measured upto 60 mins by PET imaging analysis. It counts as ADME, organism-based. Particulars: in vivo, 1 h.
Data set [8] is described as follows: Drug uptake in iv dosed Sprague-Dawley rat liver assessed as high radioactivity in liver and measured upto 60 mins by PET imaging analysis. The format is ADME, organism-based. Conditions: in vivo, 1 h.
The nature of data set [9]: Drug uptake in iv dosed Sprague-Dawley rat skin assessed as high radioactivity in body surface and measured upto 60 mins by PET imaging analysis. The format is ADME, organism-based, Skin of body. Particulars: in vivo, 1 h.
The nature of data set [10]: Drug uptake in iv dosed Sprague-Dawley rat gastrointestinal tract assessed as high radioactivity in gastrointestinal tract and measured upto 60 mins by PET imaging analysis. The format is ADME, organism-based. Particulars: in vivo, 1 h.
A short description of data set [11]: Drug uptake in iv dosed Sprague-Dawley rat urinary bladder assessed as high radioactivity in urinary bladder and measured upto 60 mins by PET imaging analysis. The format is ADME, organism-based. Particulars: in vivo, 1 h.

By IC50 is commonly meant the concentration needed to halve the response being measured. For `COc1cccc(NC(=O)/C=C/c2ccc(Cl)cc2)c1`, the IC50 in data set [1] was 3700 nM.

On to `CN(C(=O)/C=C/c1ccc(Cl)cc1)c1cccc(OCCCF)c1`, for which the IC50 in [1] stood at 1100 nM.

Turning to `CN(C(=O)/C=C/c1ccc(Cl)cc1)c1cccc(OCCF)c1`, the IC50 in data set [1] worked out at 4200 nM.

In the case of `COc1cccc(N(C)C(=O)/C=C/c2ccc(Cl)cc2)c1`, in [1], the 50% inhibitory concentration (IC50) was found to be 1300 nM.

As for `CN(C(=O)/C=C/c1ccc(Cl)cc1)c1cccc(OCCC[18F])c1`, the Drug uptake entry in [2], in data set [3], in data set [4], in [5] and in data set [6] was “Active” in each case.

As to `CN(C(=O)/C=C/c1ccc(Cl)cc1)c1cccc(O[11CH3])c1`, the Drug uptake entry in data set [2], in data set [7], in data set [8], in data set [9], in data set [3] and in [4] was “Active” each time. The Drug uptake entry in data set [5], in [10], in data set [11] and in [6] was “Active” each time.
